According to BindingDB's records for patent US9695170 (FibroGen Inc, 2017):

Target: Egl nine homolog 1 (Homo sapiens, UniProt Q9GZT9)
Assay: HIF-PH Assay
Conditions: pH 7.4
Excerpt: Ketoglutaric acid α-[1-14C]-sodium salt, alpha-ketoglutaric acid sodium salt, and HPLC purified peptide may be obtained from commercial sources, e.g., Perkin-Elmer (Wellesley Mass.), Sigma-Aldrich, and SynPep Corp. (Dublin Calif.), respectively. […] For example, a HIF peptide for use in the HIF-PH assay is [methoxycoumarin]-[…]-amide. HIF-PH, e.g., HIF-PH2 (EGLN1), can be expressed in, e.g., insect Hi5 cells, and partially purified, e.g., through a SP ion exchange chromatography column. […] Reactions are initiated by addition of HIF-PH enzyme.

Sequence of Egl nine homolog 1 (Q9GZT9 whole entry): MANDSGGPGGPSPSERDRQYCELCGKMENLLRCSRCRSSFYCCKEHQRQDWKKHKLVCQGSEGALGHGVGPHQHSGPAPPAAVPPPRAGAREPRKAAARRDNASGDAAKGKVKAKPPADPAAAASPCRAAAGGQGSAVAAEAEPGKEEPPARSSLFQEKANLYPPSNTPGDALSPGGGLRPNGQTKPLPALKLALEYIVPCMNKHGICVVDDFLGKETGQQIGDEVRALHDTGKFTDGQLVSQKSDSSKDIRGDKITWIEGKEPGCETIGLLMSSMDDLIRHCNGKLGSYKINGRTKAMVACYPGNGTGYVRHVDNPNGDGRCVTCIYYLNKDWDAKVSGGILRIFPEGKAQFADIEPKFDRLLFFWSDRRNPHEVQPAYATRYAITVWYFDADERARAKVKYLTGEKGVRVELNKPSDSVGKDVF

IC50	SMILES
134 µM	COC(=O)NCCNC(=O)c1nc(C#N)c2ccc(=O)n(Cc3ccccc3)c2c1O [US9695170 95]
137 µM	COC(=O)NCCNC(=O)c1ncc2ccc(=O)n(Cc3ccccc3)c2c1O [US9695170 96]
176 µM	Cc1ccncc1-c1nc(C(=O)NCCC(=O)O)c(O)c2cc(-c3ccccc3)c(=O)n(Cc3ccccc3)c12 [US9695170 179]
